For this assay, the target named is T1, uterine OT receptors (Rattus norvegicus, UniProt P70536).
T1 sequence (P70536 1-388): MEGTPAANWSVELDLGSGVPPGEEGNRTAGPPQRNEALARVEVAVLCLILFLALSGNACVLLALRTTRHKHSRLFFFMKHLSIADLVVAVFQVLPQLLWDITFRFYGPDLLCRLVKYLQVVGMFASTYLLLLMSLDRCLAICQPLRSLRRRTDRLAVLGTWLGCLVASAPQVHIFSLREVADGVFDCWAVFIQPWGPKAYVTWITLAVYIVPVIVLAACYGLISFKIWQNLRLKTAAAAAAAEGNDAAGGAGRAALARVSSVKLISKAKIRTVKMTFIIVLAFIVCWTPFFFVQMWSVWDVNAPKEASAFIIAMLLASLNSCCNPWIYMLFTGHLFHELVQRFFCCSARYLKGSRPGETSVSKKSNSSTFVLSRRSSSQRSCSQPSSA
Nature of the assay: [3H]Oxytocin radioligand binding competition assay, crude membrane preparation of uteri from DES-treated rats. To be noted: for IC50: 1 nM [3H]OT, 60 minutes, 22 °C, rat uterine membranes.

SMILES strings stand for the structures.

Procedure: The high affinity binding of [^3H] Oxytocin (OT)([tyrosyl, 3,5-[^3H]OT; 30-60 Ci/mmol; New England Nuclear. Boston, MA) to uterine OT receptors was based on an assay*using a crude membrane preparation of uteri taken from diethylstilbestrol dipropionate (DES)-treated (0.3 mg/kg, ip; 18-24) rats. Competition studies were conducted at equilibrium (60 minutes; 22 ° C) using 1 NM[^3H]OT in the following assay buffer: 50 mM Tris-HCI, 5 mM MgCl2, and 0.1% BSA, pH 7.4. Nonspecific binding (10% of the total binding) was determined using 1µM unlabeled OT and the binding reaction was terminated by filtration through glass fiber filters using a cell harvester (model 7019, Skatron, Inc., Sterling, VA).

As a reminder, the IC50 is the concentration that gives 50% inhibition. A higher IC50 goes with lower potency. `Cc1ccccc1N1CCN(S(=O)(=O)CC23CCC(CC2NC(=O)C(CCS(C)(=O)=O)NC(=O)Cc2c[nH]cn2)C3(C)C)CC1` (centres unmarked) [Example 37]: the IC50 is 1.2 nM.

For the compound `Cc1ccccc1N1CCN(S(=O)(=O)CC23CCC(CC2C(=O)O)C3(C)C)CC1` (centres unmarked) [Example 24], the half-maximal inhibitory concentration (IC50) amounted to 260 nM.

The compound `Cc1ccccc1N1CCN(S(=O)(=O)CC23CCC(CC2N(C)C(=O)C(N)CCS(C)(=O)=O)C3(C)C)CC1` (centres unmarked) [Example 41] returned a 50% inhibitory concentration (IC50) of 6.3 nM.

`COC(=O)C1CC2CCC1(CS(=O)(=O)N1CCN(c3ccccc3C)CC1)C2(C)C` (stereo not drawn) [Example 23, 1-((7,7-DIMETHYL-2-ENDO-METHOXYCARBONYL-BICYCLO (2.2.1)HEPTAN-1-YL)METHANESULFONYL)-4-(2-METHYLPHENYL)PIPERAZINE] showed an IC50 of 120 nM.

As for `Cc1ccccc1N1CCN(S(=O)(=O)CC23CCC(CC2N(C)C(=O)C(CCS(C)(=O)=O)N(C)C)C3(C)C)CC1` (centres unmarked) [Example 42], the IC50 was found to be 9.2 nM. Against the preceding compound, the IC50 is about 13-fold lower.

For `CCOC(=O)CN1CCCC(C(=O)NC(C)CC2(O)CC3CCC2(CS(=O)(=O)N2CCN(c4ccccc4C)CC2)C3(C)C)C1` (centres unmarked) [Example 57], the “inhibition at 100 nM” value (at 100 nM) is 66% inhibition at 100 nM.

Compound `Cc1ccccc1N1CCN(S(=O)(=O)CC23CCC(CC2NC(=O)C(CCS(C)(=O)=O)N(C)C)C3(C)C)CC1` (centres unmarked) [Example 38] displayed an IC50 of 5.4 nM.

For the compound `CC(=O)NC(CC=C1CC2CCC1(CS(=O)(=O)N1CCN(c3ccccc3C)CC1)C2(C)C)C(=O)O` (centres unmarked) [Example 29, 1-((7,7-DIMETHYL-2-(3-ACETAMIDO-3-CARBOXY) PROPYLIDINE-BICYCLO(2.2.1)HEPTAN-1-YL) METHANESULFONYL)-4-(2-METHYLPHENYL)PIPERAZINE], where the note is “read-out: inhibition at 1,000 nM”, the inhibition at 1 µM stood at 78%.

(Values after EP0533241A2, “Substituted alkyl derivatives of piperazinylcamphorsulfonyl oxytocin antagonists” (MERCK & CO. INC., priority 1991, dated 1993).)
